Test results from BindingDB's records for doi:10.1016/j.bmcl.2014.05.036 (AstraZeneca, 2014).

Tests used:
[1] = Inhibition of human BCL-2 overexpressed in mouse FDC-P1 cells assessed as cell viability after 24 hrs by Cell Titer Glo assay
[2] = Inhibition of human BCL-xL overexpressed in mouse FDC-P1 cells assessed as cell viability after 24 hrs by Cell Titer Glo assay

Q: Which IC50 [1] does the source give for `O=C(NS(=O)(=O)c1ccc(N[C@H](CCN2CCOCC2)CSc2ccccc2)c(S(=O)(=O)C(F)(F)F)c1)c1cnc(N2CCN(Cc3ccccc3-c3ccc(Cl)cc3)CC2)nc1` here?
A: Its IC50 is 0.34 µM.

Q: What about the IC50 [2] of the same compound?
A: The IC50 was 2.09 µM.

Q: What does the source list for `CN(C)C(=O)COc1ccc(-c2ccc(Cl)cc2)c(CN2CCN(c3ccc(C(=O)NS(=O)(=O)c4ccc(N[C@H](CCN5CCOCC5)CSc5ccccc5)c(S(=O)(=O)C(F)(F)F)c4)cc3)CC2)c1`?
A: IC50 [1]: 0.187 µM; IC50 [2]: 2.09 µM

Q: For `CN(C)CCOc1cccc(-c2ccc(Cl)cc2)c1CN1CCN(c2ccc(C(=O)NS(=O)(=O)c3ccc(N[C@H](CCN4CCOCC4)CSc4ccccc4)c(S(=O)(=O)C(F)(F)F)c3)cc2)CC1`, which IC50 [1] is on record?
A: The IC50 was 0.004 µM.

Q: And the IC50 [2]?
A: Its IC50 is 0.033 µM.

Q: Which IC50 [1] does the source give for `CN(C)C(=O)COc1cccc(-c2ccc(Cl)cc2)c1CN1CCN(c2ccc(C(=O)NS(=O)(=O)c3ccc(N[C@H](CCN4CCOCC4)CSc4ccccc4)c(S(=O)(=O)C(F)(F)F)c3)cc2)CC1` here?
A: Its IC50 is 0.045 µM.

Q: What about the IC50 [2] of the same compound?
A: The IC50 was 0.226 µM.

Q: Which results are given for `CN(C)CCOc1ccc(-c2ccc(Cl)cc2)c(CN2CCN(c3ccc(C(=O)NS(=O)(=O)c4ccc(N[C@H](CCN5CCOCC5)CSc5ccccc5)c(S(=O)(=O)C(F)(F)F)c4)cc3)CC2)c1`?
A: IC50 [1]: 0.022 µM; IC50 [2]: 0.138 µM

Q: For `O=C(NS(=O)(=O)c1ccc(N[C@H](CCN2CCOCC2)CSc2ccccc2)c(S(=O)(=O)C(F)(F)F)c1)c1ccc(N2CCC([S@@+]([O-])c3ccccc3-c3ccc(Cl)cc3)CC2)cc1`, which IC50 [1] is on record?
A: Its IC50 is 0.434 µM.

Q: And the IC50 [2]?
A: Its IC50 is 1.72 µM.

Q: With `N#CC1(Cc2ccccc2-c2ccc(Cl)cc2)CCN(c2ccc(C(=O)NS(=O)(=O)c3ccc(N[C@H](CCN4CCOCC4)CSc4ccccc4)c(S(=O)(=O)C(F)(F)F)c3)cc2)CC1` as the compound, how does the IC50 [1] read?
A: Its IC50 is 0.545 µM.

Q: And the IC50 [2]?
A: The IC50 was 2.82 µM.

Q: For `O=C(NS(=O)(=O)c1ccc(N[C@H](CCN2CCOCC2)CSc2ccccc2)c(S(=O)(=O)C(F)(F)F)c1)c1ccc(N2CCN(Cc3ccccc3-c3ccc(Cl)cc3)CC2)cc1`, which IC50 [1] is on record?
A: The IC50 was 0.014 µM.

Q: And the IC50 [2]?
A: Its IC50 is 0.064 µM.
